Reference: patent US8518932B2, “Oxime azetidine derivatives as sphingosine 1-phosphate (S1P) receptor modulators” (Allergan, Inc., priority 2010, dated 2013)

biological target: T1, human S1P1 receptor (Homo sapiens, UniProt P21453); test: GTP γ35S binding assay for S1P1 activity; assay type: biochemical; settings: membranes of cells stably expressing the S1P1 receptor, test compounds 0.08 to 5,000 nM, 30 min at 25° C.
T1 construct: expressed in transfected cells; membranes used
Procedure: Compounds were synthesized and tested for S1P1 activity using the GTP γ^35S binding assay. These compounds may be assessed for their ability to activate or block activation of the human S1P1 receptor in cells stably expressing the S1P1 receptor.
GTP γ^35S binding was measured in the medium containing (mM) HEPES 25, pH 7.4, MgCl2 10, NaCl 100, dithitothreitol 0.5, digitonin 0.003%, 0.2 nM GTP γ^35S, and 5 μg membrane protein in a volume of 150 μl. Test compounds were included in the concentration range from 0.08 to 5,000 nM unless indicated otherwise. Membranes were incubated with 100 μM 5′-adenylylimmidodiphosphate for 30 min, and subsequently with 10 μM GDP for 10 min on ice. Drug solutions and membrane were mixed, and then reactions were initiated by adding GTP γ^35S and continued for 30 min at 25° C. Reaction mixtures were filtered over Whatman GF/B filters under vacuum, and washed three times with 3 mL of ice-cold buffer (HEPES 25, pH7.4, MgCl2 10 and NaCl 100). Filters were dried and mixed with scintillant, and counted for ^35S activity using a β-counter. Agonist-induced GTP γ^35S binding was obtained by subtracting that in the absence of agonist. Binding data were analyzed using a non-linear regression method. In case of antagonist assay, the reaction mixture contained 10 nM S1P in the presence of test antagonist at concentrations ranging from 0.08 to 5000 nM.

T1 sequence (P21453 whole entry): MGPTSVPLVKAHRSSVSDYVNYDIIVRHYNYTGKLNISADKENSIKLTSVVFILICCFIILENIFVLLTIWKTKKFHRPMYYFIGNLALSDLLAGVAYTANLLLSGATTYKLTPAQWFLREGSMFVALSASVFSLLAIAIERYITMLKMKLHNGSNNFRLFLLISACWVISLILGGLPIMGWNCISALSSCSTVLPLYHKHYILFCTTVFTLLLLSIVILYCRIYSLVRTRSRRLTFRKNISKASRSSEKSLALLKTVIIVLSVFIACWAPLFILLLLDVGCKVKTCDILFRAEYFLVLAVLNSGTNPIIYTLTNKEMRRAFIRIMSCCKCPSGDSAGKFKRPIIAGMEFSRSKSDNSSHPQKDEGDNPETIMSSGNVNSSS

| EC50 | SMILES |
| --- | --- |
| 16.5 nM | C/C(=N\OCC(Cc1ccc(C)c(C)c1)c1cccc(C)c1)c1ccc(CN2CC(C(=O)O)C2)cc1 (centres unmarked) [Compound 1, 1-(4-{(1E)-N-[2-(3-methylphenyl)-3-(3,4-dimethylphenyl)propoxy]ethanimidoyl}benzyl)azetidine-3-carboxylic acid] |
| 9.05 nM | C/C(=N\OCC(Cc1ccc(C)c(C)c1)c1cccc(Cl)c1)c1ccc(CN2CC(C(=O)O)C2)cc1 (centres unmarked) [Compound 2, 1-(4-{(1E)-N-[2-(3-chlorophenyl)-3-(3,4-dimethylphenyl)propoxy]ethanimidoyl}benzyl)azetidine-3-carboxylic acid] |
| 230 nM | C/C(=N\OCc1ccc(CN2CC(C(=O)O)C2)cc1)C(Cc1ccc(C)c(C)c1)c1cccc(Cl)c1 (centres unmarked) [Compound 3, 1-{4-[({[(1E)-2-(3-chlorophenyl)-3-(3,4-dimethylphenyl)-1-methylpropylidene]amino}oxy)methyl]benzyl}azetidine-3-carboxylic acid] |
| 17.5 nM | C/C(=N\OCc1ccc(CN2CC(C(=O)O)C2)cc1)C(Cc1ccc(C)c(C)c1)c1cc(F)cc(F)c1 (centres unmarked) [Compound 4, 1-{4-[({[(1E)-2-(3,5-difluorophenyl)-3-(3,4-dimethylphenyl)-1-methylpropylidene]amino}oxy)methyl]benzyl}azetidine-3-carboxylic acid] |
| 163 nM | C/C(=N\OCC(Oc1ccc(C)c(C)c1)c1cccc(Cl)c1)c1ccc(CN2CC(C(=O)O)C2)cc1 (centres unmarked) [Compound 8, 1-(4-{(1E)-N-[2-(3-chlorophenyl)-2-(3,4-dimethylphenoxy)ethoxy]ethanimidoyl}benzyl)azetidine-3-carboxylic acid] |
